Results taken from ChEMBL document CHEMBL1147599 (Bioorg Med Chem Lett, 2004).

Biological target: T1, Neuropeptide Y receptor type 2 (Homo sapiens, UniProt P49146)
T1 sequence (P49146 whole entry): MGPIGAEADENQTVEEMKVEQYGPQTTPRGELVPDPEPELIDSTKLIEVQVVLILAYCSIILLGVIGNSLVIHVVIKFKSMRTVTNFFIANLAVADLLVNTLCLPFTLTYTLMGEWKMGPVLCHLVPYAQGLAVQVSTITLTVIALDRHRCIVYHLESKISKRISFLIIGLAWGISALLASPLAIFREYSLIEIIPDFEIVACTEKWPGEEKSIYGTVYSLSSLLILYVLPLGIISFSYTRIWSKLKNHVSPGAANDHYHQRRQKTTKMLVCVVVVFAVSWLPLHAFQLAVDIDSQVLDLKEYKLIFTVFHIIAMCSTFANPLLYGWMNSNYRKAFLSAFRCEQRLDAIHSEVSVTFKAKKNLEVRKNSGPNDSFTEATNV
Assay: Binding affinity towards the NPY Y2 receptor

SMILES | IC50 [µM]
CC(=O)N1CCc2ccc(N(C3CCN(Cc4ccccc4)CC3)S(=O)(=O)/C=C/c3ccccc3)cc21 | 30
CC(=O)N1CCc2ccc(N(C(=O)/C=C/c3ccccc3)C3CCN(Cc4ccccc4)C3)cc21 (stereo not drawn) | 17.5
CC(=O)N1CCc2ccc(N(C/C=C/c3ccccc3)C3CCN(Cc4ccccc4)CC3)cc21 | 30
